# Laboratory results: the supplement of paper PMC11208160
# Test: recombinant UMI read abundance after kanamycin selection (control-corrected) (log10(CPM+1)); higher = more efficient recombination; extreme values may be limits of the assay; sequences stand for … in AGTGCAGAGAAAATCGGCCAGTTTTCTCTGCCTGCAGTCCGCATGCCGTGGGACCCCTTGGGTTCTAACCTGTTGCCTAGATTTATGCAGCGGACTGCCTTTCTCCCAAAGTGATAAACCGG…AGGTTGGTTTCACT; site = the 11-nt donor
# Method in brief: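 In Escherichia coli, a pool of donor and donor-binding-loop pairs, each with a 12-nt UMI, was tested for the IS621 bridge recombinase. Plating was on IPTG (0.07 mM) plus kanamycin, or without selection, in two replicates. Recombinant UMIs were amplified by PCR across the donor–target junction and sequenced, and counts were reported as log10(CPM+1) after averaging and control-derived scaling.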
# 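Further: IS621 bridge recombinase in Escherichia coli cells against a fixed T5 target plasmid.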
row,Sequence,recombinant UMI read abundance (log10)
1,GCTTGCCCATGGACCGGTTTTCCCGGTAATCCGTATTTGAT (site GCTTTCCCTAT),0
2,TGCAATTCATGGACCGGTTTTCCCGGTAATCCGTATTTGCC (site TGCAATTCTGG),0.00516
3,GCTTGCCCATGGACCGGTTTTCCCGGTAATCCGTATTTGAT (site GCTTACCCTAT),0.00934
4,AGATCATCATGGACCGGTTTTCCCGGTAATCCGTATTTGCT (site TGATCATCTAG),1.75
5,TCTAATACATGGACCGGTTTTCCCGGTAATCCGTATTTGGC (site CCTAATACTGC),0
6,GGCGACCCATGGACCGGTTTTCCCGGTAATCCGTATTTGTT (site GGCTACCCTAA),0.0186
7,AGCCTTTCATGGACCGGTTTTCCCGGTAATCCGTATTTGAC (site AGCCTTGCTGT),0
8,GAGGCACCATGGACCGGTTTTCCCGGTAATCCGTATTTGCA (site GAGGCACCTTG),0.344
9,CGCACCCCATGGACCGGTTTTCCCGGTAATCCGTATTTGAC (site CGCACCCCTGT),1.43
10,GTGCAAGCATGGACCGGTTTTCCCGGTAATCCGTATTTGGT (site GTGCAAGCTAC),1.28
11,CGTGAGTCATGGACCGGTTTTCCCGGTAATCCGTATTTGCC (site CGGGAGTCTGG),0.694
12,TTCAGCTCATGGACCGGTTTTCCCGGTAATCCGTATTTGGT (site TTCAGCTCTAC),0.00826
13,ACTGTGTCATGGACCGGTTTTCCCGGTAATCCGTATTTGAC (site AGTGTGTCTGT),0
14,TCCTTCTCATGGACCGGTTTTCCCGGTAATCCGTATTTGGG (site ACCTTCTCTCC),0.0101
15,CAAGTTACATGGACCGGTTTTCCCGGTAATCCGTATTTGGG (site CAAGTCACTCC),0.252
16,TAGCTCACATGGACCGGTTTTCCCGGTAATCCGTATTTGAT (site CAGCTCACTAT),0.61
17,TCCTAGGCATGGACCGGTTTTCCCGGTAATCCGTATTTGGT (site TACTAGGCTAC),0.0272
18,ACACGAACATGGACCGGTTTTCCCGGTAATCCGTATTTGTC (site CCACGAACTGA),0.924
19,AGCCTTTCATGGACCGGTTTTCCCGGTAATCCGTATTTGAC (site AGTCTTTCTGT),0
20,CCTTTACCATGGACCGGTTTTCCCGGTAATCCGTATTTGAA (site CCTTTACCTTT),0.019
21,CCGTTTCCATGGACCGGTTTTCCCGGTAATCCGTATTTGCT (site CCGTTTACTAG),0
22,AACCCTCCATGGACCGGTTTTCCCGGTAATCCGTATTTGAT (site AACCCTCCTAT),0.115
23,GATACTGCATGGACCGGTTTTCCCGGTAATCCGTATTTGCC (site GATACTGCTGG),0.895
24,AGGACTCCATGGACCGGTTTTCCCGGTAATCCGTATTTGAC (site AGGACTCCTGT),0.719
25,ACAGTATCATGGACCGGTTTTCCCGGTAATCCGTATTTGCA (site ACAATATCTTC),0.00345

row,Sequence,recombinant UMI read abundance (log10)
1,CGTTTGGCATGGACCGGTTTTCCCGGTAATCCGTATTTGGT (site CGTTTGGCTAA),0.0435
2,CTTCTATCATGGACCGGTTTTCCCGGTAATCCGTATTTGTA (site CTTCTGTCTTA),0
3,TAAGGTCCATGGACCGGTTTTCCCGGTAATCCGTATTTGTA (site TAAAGTCCTTA),0.294
4,CGGTATCCATGGACCGGTTTTCCCGGTAATCCGTATTTGAT (site CGGAATCCTAA),0.00344
5,AAGCACGCATGGACCGGTTTTCCCGGTAATCCGTATTTGTG (site AAGCACGCTCG),1.22
6,CCCTAGCCATGGACCGGTTTTCCCGGTAATCCGTATTTGCC (site CCCTGGCCTGG),0
7,CGGACACCATGGACCGGTTTTCCCGGTAATCCGTATTTGCT (site CGGACAGCTAG),0.00902
8,CGGACACCATGGACCGGTTTTCCCGGTAATCCGTATTTGCT (site CGGACATCTAG),0
9,TTAGCTACATGGACCGGTTTTCCCGGTAATCCGTATTTGTG (site TTAGCTTCTCA),0.0149
10,GGGGCAACATGGACCGGTTTTCCCGGTAATCCGTATTTGTC (site GGGGCAACTGA),1.94
11,CCGGGACCATGGACCGGTTTTCCCGGTAATCCGTATTTGAG (site CCGGGACCTCT),0
12,CGGAACCCATGGACCGGTTTTCCCGGTAATCCGTATTTGTT (site CGGAATCCTAA),0.208
13,AAGCACGCATGGACCGGTTTTCCCGGTAATCCGTATTTGTG (site AAGCACGCTCC),0
14,CGAGCCTCATGGACCGGTTTTCCCGGTAATCCGTATTTGCG (site CGAGCCTCTCG),2.41
15,GTCGGCACATGGACCGGTTTTCCCGGTAATCCGTATTTGAC (site GTCGGCACTGT),2.04
16,ATCTAGACATGGACCGGTTTTCCCGGTAATCCGTATTTGAG (site ATCTAGACTCT),1.31
17,GGATCATCATGGACCGGTTTTCCCGGTAATCCGTATTTGCC (site GGATCATCTGG),0.722
18,ACAGTATCATGGACCGGTTTTCCCGGTAATCCGTATTTGCA (site ACAGTAGCTTG),0.142
19,CAAGATTCATGGACCGGTTTTCCCGGTAATCCGTATTTGTT (site GAAGATTCTAA),0
20,AGCCTTTCATGGACCGGTTTTCCCGGTAATCCGTATTTGCC (site AGCCTTTCTGA),0
21,ACACGAACATGGACCGGTTTTCCCGGTAATCCGTATTTGTC (site ACACGAACTTA),1.96
22,TATGTCTCATGGACCGGTTTTCCCGGTAATCCGTATTTGCC (site TATGTCTCTGG),2.6
23,GACCCATCATGGACCGGTTTTCCCGGTAATCCGTATTTGGA (site GACCCATCTTC),1.26
24,GAAGATTCATGGACCGGTTTTCCCGGTAATCCGTATTTGTT (site GAAGATTCTCA),0.868
25,ACTAGTGCATGGACCGGTTTTCCCGGTAATCCGTATTTGCT (site ACTAGTGCTAT),0.0101

row,Sequence,recombinant UMI read abundance (log10)
1,GCCAATTCATGGACCGGTTTTCCCGGTAATCCGTATTTGCC (site GCCAATTCTGG),0.426
2,TGTTCCCCATGGACCGGTTTTCCCGGTAATCCGTATTTGTG (site TGTTCCCCTGA),0
3,TCCACACCATGGACCGGTTTTCCCGGTAATCCGTATTTGAG (site TCCACACCTCT),0.0221
4,CCCGACACATGGACCGGTTTTCCCGGTAATCCGTATTTGTA (site CCCGACACTTA),0.974
5,AGCTAACCATGGACCGGTTTTCCCGGTAATCCGTATTTGAA (site AGCTAACCTTT),0.00558
6,AGTCTAGCATGGACCGGTTTTCCCGGTAATCCGTATTTGTT (site AGTCTAGCTAA),0.0147
7,CACGGTCCATGGACCGGTTTTCCCGGTAATCCGTATTTGTT (site CACGGCCCTAA),0.18
8,CCTAGGTCATGGACCGGTTTTCCCGGTAATCCGTATTTGCC (site CCTAGGTCTGG),0
9,GTCGCCACATGGACCGGTTTTCCCGGTAATCCGTATTTGGA (site GTCGCCACTTC),0.751
10,CCCGTATCATGGACCGGTTTTCCCGGTAATCCGTATTTGTC (site CCCGTATCTGA),1.83
11,TACAATTCATGGACCGGTTTTCCCGGTAATCCGTATTTGCC (site TGCAATTCTGG),0.434
12,GAGTACGCATGGACCGGTTTTCCCGGTAATCCGTATTTGAT (site GAGTACGCTAT),1.99
13,GCCAGCGCATGGACCGGTTTTCCCGGTAATCCGTATTTGCC (site GCCAGCGCTGG),1.98
14,CGATCATCATGGACCGGTTTTCCCGGTAATCCGTATTTGCC (site CGATCATCTGG),0
15,GCGGGCACATGGACCGGTTTTCCCGGTAATCCGTATTTGTG (site GCGGGCACTCA),0.836
16,AGGTGCCCATGGACCGGTTTTCCCGGTAATCCGTATTTGTG (site AGGTCCCCTCA),0.0213
17,CAAGTCACATGGACCGGTTTTCCCGGTAATCCGTATTTGGG (site CAGGTCACTCC),0.0212
18,GGGAATACATGGACCGGTTTTCCCGGTAATCCGTATTTGCA (site GGGAATACTTG),1.37
19,GTAGTCGCATGGACCGGTTTTCCCGGTAATCCGTATTTGCG (site TTAGTCGCTCG),1.26
20,CACGCATCATGGACCGGTTTTCCCGGTAATCCGTATTTGAT (site CACGCATCTAT),2.51
21,GAGCCTCCATGGACCGGTTTTCCCGGTAATCCGTATTTGAG (site GAGCCTCCTCT),0.0215
22,GGCAATCCATGGACCGGTTTTCCCGGTAATCCGTATTTGAA (site GGCAATCCTTT),0.434
23,ATCCAATCATGGACCGGTTTTCCCGGTAATCCGTATTTGAG (site ATCCAAGCTCT),0.0117
24,GTTCGAGCATGGACCGGTTTTCCCGGTAATCCGTATTTGCA (site GTTCGAGCTTC),0.0558
25,TCGAATACATGGACCGGTTTTCCCGGTAATCCGTATTTGCA (site TGGAATACTTG),0.0214
